{"source": "patent US10870851B2", "about": "“Non-coding RNAs linked to immortality and associated methods and compositions” (The Regents of the University of California, priority 2015, dated 2020)", "key": {"[1]": {"system": "MDA-MB231", "assay": "5-AdC treatment of MORT-negative breast tumor line MDA-MB231", "format": "cell-based, human", "settings": "1 μM 5-AdC for 96 h", "description": "(§1) Finite and immortalized HMEC were generated and grown as previously described^1, 2, 32. […] […]. Retroviral transduction was performed as described^1, 2. Breast tumor lines MDA-MB231, MDA-MB453, and MCF7 were grown as previously described^33, 34.\n(§2) Cells were treated with 1 μM 5-aza-2′-deoxycytidine (Sigma) for 96 h, as previously described^33.\n(§3) DNA methylation analysis by MassARRAY. DNA methylation analysis by Sequenom MassARRAY (Sequenom) was performed as described^40. Primer sequences are provided in FIG. 18 and are SEQ ID NOs: 3, 4, 5, and 6. Oligonucleotides used for MassARRAY analysis were ordered from Integrated DNA Technologies. Two MassARRAY amplicons covered 800 bp region including the first MORT exon and about 500 bp upstream MORT transcription start (FIG. 4C). The mean DNA methylation of all 26 informative CpG units within MassARRAY amplicons was used for data presentation and statistical analysis.\n(§4) The reverse transcription and real-time PCR was performed as previously described in Oshiro M M, Watts G S, Wozniak R J, Junk D J, Munoz-Rodriguez J L, Domann F E, Futscher B W. Mutant p53 and aberrant cytosine methylation cooperate to silence gene expression. Oncogene 2003; 22:3624-34 (reference 1 herein), and Vrba L, Junk D J, Novak P, Futscher B W. p53 induces distinct epigenetic states at its direct target promoters. […]"}, "[2]": {"system": "184Dp16sMY HMEC", "assay": "5-AdC treatment of immortalized MORT negative HMEC line 184Dp16sMY", "format": "cell-based, human", "settings": "96 h treatment, three concentrations of 5-AdC (FIG. 14)", "description": "Finite and immortalized HMEC were generated and grown as previously described^1, 2, 32. […]. Retroviral transduction was performed as described^1, 2. Breast tumor lines MDA-MB231, MDA-MB453, and MCF7 were grown as previously described^33, 34. […]\nThe reverse transcription and real-time PCR was performed as previously described in Oshiro M M, Watts G S, Wozniak R J, Junk D J, Munoz-Rodriguez J L, Domann F E, Futscher B W. Mutant p53 and aberrant cytosine methylation cooperate to silence gene expression. Oncogene 2003; 22:3624-34 (reference 1 herein), and Vrba L, Junk D J, Novak P, Futscher B W. p53 induces distinct epigenetic states at its direct target promoters. BMC Genomics 2008; 9:486 (reference 41 herein), both incorporated herein by reference. Primers were designed for MORT, GAPDH, MYC and XIST and used with the Human Universal Probe Library Set (Roche Diagnostics). The cycle threshold (Ct) MORT values were normalized between the samples using GAPDH Ct values. The data were then converted into a value that is in log 2 scale, but increases with the expression level using formula 40-Ct. Since 40 was the total number of PCR cycles it was the lowest detectable expression level and therefore it was considered the background and set as 0 to display the data in the plots. […]"}, "[3]": {"system": "MCF7", "assay": "5-AdC treatment of MORT-negative breast tumor line MCF7", "format": "cell-based, human", "settings": "1 μM 5-AdC for 96 h", "description": "as §1, §2, §3, §4"}, "[4]": {"system": "MDA-MB453", "assay": "5-AdC treatment of MORT-negative breast tumor line MDA-MB453", "format": "cell-based, human", "settings": "1 μM 5-AdC for 96 h", "description": "as §1, §2, §3, §4"}, "[5]": {"assay": "MORT transcript half-life using actinomycin D treatment", "format": "cell-based", "settings": "actinomycin D 1 μg/ml; c-MYC and GAPDH as reference genes", "description": "FIG. 7 is a graph showing determination of MORT transcript half-life using actinomycin D (1 μg/ml) treatment. c-MYC was used as a short half-life reference gene and GAPDH was used as a long half-life reference gene. (Yang et al. 2003). […] The error bars show the SEM of 3 independent experiments.\nThe reverse transcription and real-time PCR was performed as previously described in Oshiro M M, Watts G S, Wozniak R J, Junk D J, Munoz-Rodriguez J L, Domann F E, Futscher B W. Mutant p53 and aberrant cytosine methylation cooperate to silence gene expression. Oncogene 2003; 22:3624-34 (reference 1 herein), and Vrba L, Junk D J, Novak P, Futscher B W. p53 induces distinct epigenetic states at its direct target promoters. BMC Genomics 2008; 9:486 (reference 41 herein), both incorporated herein by reference. Primers were designed for MORT, GAPDH, MYC and XIST and used with the Human Universal Probe Library Set (Roche Diagnostics). The cycle threshold (Ct) MORT values were normalized between the samples using GAPDH Ct values. The data were then converted into a value that is in log 2 scale, but increases with the expression level using formula 40-Ct. Since 40 was the total number of PCR cycles it was the lowest detectable expression level and therefore it was considered the background and set as 0 to display the data in the plots."}, "[6]": {"system": "Immortal, MORT(−) 184Dp16sMY HMEC", "assay": "Reversal of immortalization: lentiviral restoration of MORT expression in immortal HMEC", "format": "cell-based, human", "settings": "qRT/PCR during MORT-mediated senescence", "description": "Clontech's Tet-On® 3G system was used to construct lentiviral vectors that express 1) the MORT lncRNA sequence (MORT-Exact)(SEQ ID NO:8) and 2) an aberrant MORT lncRNA to which 60 nucleotides were added at the 5′ end of MORT that was predicted to disrupt RNA secondary structure rendering MORT either hypomorphic or completely nonfunctional (MORT-null). […] Immortal, MORT(−) 184Dp16sMY HMEC were either untreated or transduced with a lentivirus that expressed MORT-Exact, MORT-Null, or eGFP. Cells transduced with MORT-Exact cease growth and take on senescent phenotypes (FIG. 19A-19B)."}}, "note": "Entries after “also recorded” stand apart in the source; their conditions may differ.", "data": [{"molecule": "Nc1ncn([C@H]2C[C@H](O)[C@@H](CO)O2)c(=O)n1", "note": "[5-AdC, 5-aza-2′-deoxycytidine]", "values": [{"measurement": "level of DNA methylation of the MORT promoter", "setting": "[1]; Sequenom MassARRAY", "value": "significant decrease"}, {"measurement": "MORT expression (transcript level)", "setting": "[1]; real-time PCR", "value": "reactivation of MORT expression"}, {"measurement": "MORT transcription (transcript level)", "setting": "[2]", "value": "reactivation of MORT transcription; also recorded: increased MORT level"}, {"measurement": "level of DNA methylation of the MORT promoter", "setting": "[3]; Sequenom MassARRAY", "value": "significant decrease"}, {"measurement": "MORT expression (transcript level)", "setting": "[3]; real-time PCR", "value": "reactivation of MORT expression"}, {"measurement": "level of DNA methylation of the MORT promoter", "setting": "[4]; Sequenom MassARRAY", "value": "significant decrease"}, {"measurement": "MORT expression (transcript level)", "setting": "[4]; real-time PCR", "value": "reactivation of MORT expression"}]}, {"molecule": "MORT: long non-coding RNA (lincRNA), 1.53 kb, ribonucleotide sequence SEQ ID NO:7", "values": [{"measurement": "MORT transcript half-life", "setting": "[5]", "value": "~15", "unit": "h"}, {"measurement": "induced overexpression of p16 or p14", "setting": "[6]", "value": "not due to induced overexpression of p16 or p14"}, {"measurement": "induction of p53 and p53 target genes MDM2, p21, PIG3, MASPIN", "setting": "[6]", "value": "neither p53 nor well-defined p53 target genes, MDM2, p21, PIG3, and MASPIN were induced"}]}]}
